For 25 compounds, IC50 results are on record in patent US11453690B2, “Receptor inhibitor, pharmaceutical composition comprising same, and use thereof” (BEIJING TIDE PHARMACEUTICAL CO., LTD., priority 2018, dated 2022).

One experiment deals with AT1 Receptor (AT1R) (Homo sapiens (Human), UniProt P30556). Nature of the experiment: Measurement of inhibitory activity on AT1 receptor (Tag-lite HTRF, Tb-labeled AT1R cells, angiotensin receptor red agonist). Format: binding. The conditions noted are these: 1 h room temperature. On the procedure: Measurement of Inhibitory Activity on AT1 Receptor ([…])/AT2 Receptor (AT2R)
Through the following steps, the inhibitory activity of the compound on AT1R/AT2R (IC50 value) was determined:
1) An appropriate amount of 1×TLB (Tag-lite Buffer) was prepared and well mixed for use.
2) The compound was diluted by 10 times with ddH2O or DMSO. The compound was then dilute to 4 times of the working concentration with 1×TLB and mixed well for use.
3) 8600 nM Tag-lite angiotensin receptor red agonist was diluted to 12 nM (4×Kd) with 1×TLB.
4) 5 ml 1×TLB was taken into a 15 ml centrifuge tube.
5) After thawing 1 tube of Tb-labeled AT1R/AT2R cells in a 37° C. water bath, the cells were quickly transferred to the 1×TLB in step 4), mixed gently, and centrifuged at 1200 g for 5 minutes at room temperature.
6) The supernatant was aspirated gently, and the cells were resuspended and mixed in 2.7 ml 1×TLB, and then placed at room temperature until use.
7) 10 μl cells were added to all test wells, and 5 μl 4× working solution of the compound from step 2) was added to the corresponding test wells. 5 μl 4× Tag-lite angiotensin receptor red agonist well diluted in step 3) was added to all test wells.
8) After leaving the reaction plate at room temperature for 1 h, data were measured and analyzed using Envision HTRF Reader, and the half inhibitory concentration (IC50) of the compound on AT1R/AT2R was calculated with the GraphPad Prism four-parameter equation.
(In general: In TR-FRET formats the signal depends on donor and acceptor labels being close together.)

A further experiment has as its target AT2 Receptor (AT2R) (Homo sapiens (Human), UniProt P50052). Nature of the experiment: Measurement of inhibitory activity on AT2 receptor (Tag-lite HTRF, Tb-labeled AT2R cells, angiotensin receptor red agonist). Type of experiment: binding. The conditions noted are these: 1 h room temperature.

Chain of AT1 Receptor (AT1R) (P30556 whole entry): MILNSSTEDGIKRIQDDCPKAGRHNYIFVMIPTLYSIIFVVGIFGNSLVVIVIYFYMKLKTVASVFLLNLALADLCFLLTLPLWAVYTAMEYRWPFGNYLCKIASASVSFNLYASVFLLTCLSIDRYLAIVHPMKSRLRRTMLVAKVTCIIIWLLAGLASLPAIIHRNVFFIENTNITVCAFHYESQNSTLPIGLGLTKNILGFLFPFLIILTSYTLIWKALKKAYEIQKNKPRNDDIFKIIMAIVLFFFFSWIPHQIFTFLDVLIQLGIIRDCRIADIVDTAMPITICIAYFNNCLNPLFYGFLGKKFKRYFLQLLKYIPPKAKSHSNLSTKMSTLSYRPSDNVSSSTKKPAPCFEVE
Chain of AT2 Receptor (AT2R) (P50052 whole entry): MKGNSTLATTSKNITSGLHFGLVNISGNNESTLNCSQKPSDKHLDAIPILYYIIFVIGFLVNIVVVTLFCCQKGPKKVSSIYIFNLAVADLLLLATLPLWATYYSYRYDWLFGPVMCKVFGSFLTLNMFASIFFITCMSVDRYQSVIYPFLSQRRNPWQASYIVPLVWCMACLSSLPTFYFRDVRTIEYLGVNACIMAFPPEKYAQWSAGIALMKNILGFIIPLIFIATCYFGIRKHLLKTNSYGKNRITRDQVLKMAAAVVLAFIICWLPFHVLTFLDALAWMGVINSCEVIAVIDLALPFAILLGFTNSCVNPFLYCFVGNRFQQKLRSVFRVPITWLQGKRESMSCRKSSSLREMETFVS

With `O=C(O)[C@@H]1[C@H]2CC[C@@H](CN1C(=O)C(c1ccccc1)c1ccccc1)N2C(=O)NCc1ccccc1` [Compound C78, (1R,2S,5S)-8-(benzylcarbamoyl)-3-(2,2-diphenylacetyl)-3,8-diazabicyclo[3. 2.1]octane-2-carboxylic acid], the IC50 (usually the midpoint of a concentration-inhibition curve) on AT1 Receptor (AT1R) was > 10000 nM; on AT2 Receptor (AT2R), 55 nM.
Take `O=C(O)[C@@H]1C2CCC(CC2OCc2ccccc2)N1C(=O)C(c1ccccc1)c1ccccc1` (stereo in doubt) [Compound C283, (1S,3S,4S)-5-(benzyloxy)-2-(2,2-diphenylacetyl)-2-azabicyclo[2.2.2]octane-3-carboxylic acid]: the IC50 at AT1 Receptor (AT1R) was > 10000 nM; on AT2 Receptor (AT2R) it was 46.3 nM.
For `O=C(O)[C@@H]1[C@H]2CC[C@@H](CN1C(=O)C(c1ccccc1)c1ccccc1)N2C(=O)OCc1ccccc1` [Compound C34, (1R,2S,5S)-8-((benzyloxy)carbonyl)-3-(2,2-diphenylacetyl)-3,8-diazabicyclo[3.2.1]octane-2-carboxylic acid], the IC50 on AT1 Receptor (AT1R) is > 10000 nM; at AT2 Receptor (AT2R) it was 35.2 nM.
The corresponding values for `O=C(O)[C@@H]1[C@H]2CC[C@@H](CN1C(=O)C(c1ccccc1)c1ccccc1)N2C(=O)Nc1ccccc1` [Compound C83, (1R,2S,5S)-3-(2,2-diphenylacetyl)-8-(phenylcarbamoyl)-3,8-diazabicyclo [3.2.1]octane-2-carboxylic acid] are > 10000 nM and 18.1 nM.
On to `CN(Cc1ccccc1)C(=O)N1[C@H]2CC[C@@H]1[C@@H](C(=O)O)N(C(=O)C(c1ccccc1)c1ccccc1)C2` [Compound C82, (1R,2S,5S)-8-(benzyl(methyl)carbamoyl)-3-(2,2-diphenylacetyl)-3,8-diazabicyclo[3.2.1]octane-2-carboxylic acid], for which the values for the IC50 at AT1 Receptor (AT1R) and at AT2 Receptor (AT2R) were > 10000 nM and 3.98 nM, respectively.
On the same counts, the results for `O=C(O)[C@@H]1[C@H]2CC[C@@H](CN1C(=O)C(c1ccccc1)c1ccccc1)N2C(=O)Oc1ccccc1` [Compound C79, (1R,2S,5S)-3-(2,2-diphenylacetyl)-8-(phenoxycarbonyl)-3,8-diazabicyclo[3.2.1]octane-2-carboxylic acid] are > 10000 nM and 24.6 nM.
As to `O=C(O)[C@@H]1[C@H]2CC[C@@H](CN1C(=O)C(c1ccccc1)c1ccccc1)N2C(=O)C(c1ccccc1)c1ccccc1` [Compound C1, (1R,2S,5S)-3,8-bis(2,2-diphenylacetyl)-3,8-diazabicyclo[3.2.1]octane-2-carboxylic acid], the IC50 on AT1 Receptor (AT1R) was > 10000 nM; on AT2 Receptor (AT2R), 6.67 nM.
For `CN(Cc1ccc(C#N)cc1)C(=O)N1[C@H]2CC[C@@H]1[C@H](C(=O)O)N(C(=O)N(c1ccccc1)c1ccccc1)C2` [Compound C167, (1R,2R,5S)-8-((4-cyanobenzyl) (methyl)carbamoyl)-3-(diphenylcarbamoyl)-3,8-diazabicyclo [3.2.1]octane-2-carboxylic acid], the figures for the IC50 on AT1 Receptor (AT1R) and at AT2 Receptor (AT2R) were > 10000 nM and 18.9 nM, respectively.
Turning to `O=C(O)[C@@H]1[C@H]2CC[C@@H](CN1C(=O)N(c1ccccc1)c1ccccc1)N2C(=O)C(c1ccccc1)c1ccccc1` [Compound C12, (1R,2S,5S)-8-(2,2-diphenylacetyl)-3-(diphenylcarbamoyl)-3,8-diazabicyclo [3.2.1]octane-2-carboxylic acid], the figures for the half-maximal inhibitory concentration (IC50) on AT1 Receptor (AT1R) and on AT2 Receptor (AT2R) were > 10000 nM and 17.1 nM, respectively.
The corresponding values for `CN(Cc1ccccc1)C(=O)N1[C@H]2CC[C@@H]1[C@@H](C(=O)O)N(C(=O)N(c1ccccc1)c1ccccc1)C2` [Compound C112, (1R,2S,5S)-8-(benzyl(methyl)carbamoyl)-3-(diphenylcarbamoyl)-3,8-diazabicyclo [3.2.1]octane-2-carboxylic acid] are > 10000 nM and 21.5 nM.
The corresponding values for `CC(C(=O)N1C[C@@H]2CC[C@H]([C@H]1C(=O)O)N2C(=O)OCc1ccccc1)(c1ccccc1)c1ccccc1` [Compound C157] are > 10000 nM and 27.1 nM.
Turning to `O=C(O)[C@@H]1[C@H]2CC[C@@H](CN1C(=O)N(c1ccccc1)c1ccccc1)N2C(=O)OCc1ccccc1` [Compound C37, (1R,2S,5S)-8-((benzyloxy)carbonyl)-3-(diphenylcarbamoyl)-3,8-diazabicyclo [3.2.1]octane-2-carboxylic acid], the figures for the IC50 on AT1 Receptor (AT1R) and on AT2 Receptor (AT2R) were > 10000 nM and 55.3 nM, respectively.
As to `O=C(O)[C@H]1[C@@H]2CC[C@H](CN1C(=O)N1c3ccccc3C=Cc3ccccc31)N2C(=O)C(c1ccccc1)c1ccccc1` [Compound C71, (1S,2R,5R)-3-(5H-dibenzo[bf]azepine-5-carbonyl)-8-(2,2-diphenylacetyl)-3,8-diazabicyclo[3. 2.1]octane-2-carboxylic acid], the values for the IC50 at AT1 Receptor (AT1R) and at AT2 Receptor (AT2R) were > 10000 nM and 50.4 nM, respectively.
`COc1ccc(CN(C)C(=O)N2[C@H]3CC[C@@H]2[C@@H](C(=O)O)N(C(=O)N(c2ccccc2)c2ccccc2)C3)cc1` [Compound C166]: the figures for the IC50 on AT1 Receptor (AT1R) and on AT2 Receptor (AT2R) were > 10000 nM and 4.42 nM, respectively.
As for `O=C(O)[C@H]1[C@@H]2CC[C@H](CN1C(=O)N(c1ccccc1)c1ccccc1)N2C(=O)N(c1ccccc1)c1ccccc1` [Compound C14, (1S,2R,5R)-3,8-bis (diphenylcarbamoyl)-3,8-diazabicyclo [3.2.1]octane-2-carboxylic acid], the IC50 at AT1 Receptor (AT1R) is > 10000 nM; at AT2 Receptor (AT2R), 29.4 nM.
On the same counts, the results for `Cc1ccc(CN(C)C(=O)N2[C@H]3CC[C@@H]2[C@@H](C(=O)O)N(C(=O)N(c2ccccc2)c2ccccc2)C3)cc1` [Compound C162, (1R,2S,5S)-3-(diphenylcarbamoyl)-8-(methyl(4-methylbenzyl)carbamoyl)-3,8-diazabicyclo [3.2.1]octane-2-carboxylic acid] are > 10000 nM and 4.04 nM.
The compound `Cc1ccc([C@H]2CCCN2C(=O)N2[C@H]3CC[C@@H]2[C@@H](C(=O)O)N(C(=O)N(c2ccccc2)c2ccccc2)C3)cc1` [Compound C143, (1R,2S,5S)-3-(diphenylcarbamoyl)-8-((R)-2-(p-tolyl)pyrrolidine-1-carbonyl)-3,8-diazabicyclo [3.2.1]octane-2-carboxylic acid] gave a half-maximal inhibitory concentration (IC50) on AT2 Receptor (AT2R) of 9.97 nM.
On the same count and under the same terms, in the case of `CN(Cc1ccccc1F)C(=O)N1[C@H]2CC[C@@H]1[C@@H](C(=O)O)N(C(=O)N(c1ccccc1)c1ccccc1)C2` [Compound C114, (1R,2S,5S)-3-(diphenylcarbamoyl)-8-((2-fluorobenzyl) (methyl)carbamoyl)-3,8-diazabicyclo [3.2.1]octane-2-carboxylic acid] it was 26.4 nM; in that of `CCN(Cc1sccc1C)C(=O)N1[C@H]2CC[C@@H]1[C@@H](C(=O)O)N(C(=O)N(c1ccccc1)c1ccccc1)C2` [Compound C272, (1R,2S,5S)-3-(diphenylcarbamoyl)-8-(ethyl((3-methylthiophen-2-yl)methyl)carbamoyl)-3,8-diazabicyclo [3.2.1]octane-2-carboxylic acid], 16.6 nM; in that of `O=C(O)[C@H]1[C@@H]2CC[C@H](CN1C(=O)C(c1ccccc1)c1ccccc1)N2C(=O)C(c1ccccc1)c1ccccc1` [Compound C4, (1S,2R,5R)-3,8-bis (2,2-diphenylacetyl)-3,8-diazabicyclo [3.2.1]octane-2-carboxylic acid], 9.82 nM.
At AT2 Receptor (AT2R), `CC(CC(=O)N1[C@H]2CC[C@@H]1[C@@H](C(=O)O)N(C(=O)N(c1ccccc1)c1ccccc1)C2)c1ccccc1` (stereo partly drawn) [Compound C224, (1R,2S,5S)-3-(diphenylcarbamoyl)-8-(3-phenylbutylyl)-3,8-diazabicyclo [3.2.1]octane-2-carboxylic acid] showed an IC50 of 23.8 nM.
The same measure, in the same setting: in the case of `C#Cc1ccc(CN(C)C(=O)N2[C@H]3CC[C@@H]2[C@@H](C(=O)O)N(C(=O)N(c2ccccc2)c2ccccc2)C3)cc1` [Compound C171, (1R,2S,5S)-3-(diphenylcarbamoyl)-8-((4-ethynylbenzyl) (methyl)carbamoyl)-3,8-diazabicyclo [3.2.1]octane-2-carboxylic acid] it was 19.2 nM; in that of `CC(CC(=O)N1[C@H]2CC[C@@H]1[C@@H](C(=O)O)N(C(=O)C(c1ccccc1)c1ccccc1)C2)c1ccccc1` (stereo partly drawn) [Compound C223, (1R,2S,5S)-3-(2,2-diphenylacetyl)-8-(3-phenylbutyryl)-3,8-diazabicyclo [3.2.1]octane-2-carboxylic acid], 7.87 nM; in that of `CCN(Cc1ccc(Cl)cc1)C(=O)N1[C@H]2CC[C@@H]1[C@@H](C(=O)O)N(C(=O)N(c1ccccc1)c1ccccc1)C2` [Compound C217, (1R,2S,5S)-8-((4-chlorobenzyl) (ethyl)carbamoyl)-3-(diphenylcarbamoyl)-3,8-diazabicyclo [3.2.1]octane-2-carboxylic acid], 9.13 nM.
The same measure, in the same setting: then `CN(Cc1cccc(Cl)c1)C(=O)N1[C@H]2CC[C@@H]1[C@@H](C(=O)O)N(C(=O)N(c1ccccc1)c1ccccc1)C2` [Compound C151, (1R,2S,5S)-8-((3-chlorobenzyl) (methyl)carbamoyl)-3-(diphenylcarbamoyl)-3,8-diazabicyclo [3.2.1]octane-2-carboxylic acid], with 74.3 nM.
